In the test the target is human H4 receptor (Homo sapiens (Human), UniProt Q9H3N8). The test can be described thus: Binding assay on recombinant human histamine H4 receptor ([3H]histamine competition, SK-N-MC cell membranes). Conditions: membranes harvested with cell harvester; [3H]histamine 10 nM; average of results; read-out: Cell Harvester Ki. The procedure, abridged: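 Membranes from SK-N-MC cells stably or transiently transfected with human H4 receptor, prepared by homogenization and 30,000 g centrifugation in Tris/EDTA. Bound [3H]histamine separated by rapid filtration on PEI-treated GF/C filters, washed with ice-cold Tris/EDTA, counted by scintillation. '>' values denote highest concentration tested.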
Chain of human H4 receptor (Q9H3N8 whole entry): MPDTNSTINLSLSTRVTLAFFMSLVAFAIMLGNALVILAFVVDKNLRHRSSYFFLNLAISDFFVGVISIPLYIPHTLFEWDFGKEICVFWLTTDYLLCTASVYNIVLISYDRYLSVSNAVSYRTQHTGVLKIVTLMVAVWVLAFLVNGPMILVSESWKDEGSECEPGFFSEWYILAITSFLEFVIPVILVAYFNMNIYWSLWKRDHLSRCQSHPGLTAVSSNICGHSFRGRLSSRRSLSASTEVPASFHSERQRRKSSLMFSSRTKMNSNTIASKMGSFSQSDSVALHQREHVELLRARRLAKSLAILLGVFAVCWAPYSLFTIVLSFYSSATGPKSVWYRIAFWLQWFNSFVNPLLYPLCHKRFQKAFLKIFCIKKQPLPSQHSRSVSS

Experimental findings from patent US9732087B2, “Diamino-pyridine, pyrimidine, and pyridazine modulators of the histamine H4 receptor” (JANSSEN PHARMACEUTICA NV, priority 2008, dated 2017) are described below.

Molecules are shown by their SMILES. Where only a bound is given, the exact number is not on record here.

On to `CNC1CN(c2ccnc(NC3CC4CCC3C4)n2)C1` (stereo not shown) [Example 147, N-Bicyclo[2.2.1]hept-2-yl-4-[3-(methylamino)azetidin-1-yl]pyrimidin-2-amine], for which the Ki (usually a dissociation constant, usually derived from enzyme kinetics or from competition with a known ligand) stood at 6.66 nM.
For the compound `N[C@H]1CCN(c2ccnc(NCC3CCCC3)n2)C1` [Example 149, 4-[(3S)-3-Aminopyrrolidin-1-yl]-N-(cyclopentylmethyl)pyrimidin-2-amine], the Ki was 23.8 nM.
Take `N[C@@H]1CCN(c2ccnc(NCCCC(F)(F)F)n2)C1` [Example 150, 4-[(3R)-3-Aminopyrrolidin-1-yl]-N-(4,4,4-trifluorobutyl)pyrimidin-2-amine]: the Ki came to 29.7 nM.
As for `CC(C)(CO)CNc1nccc(N2CC(N)C2)n1` [Example 151, 3-{[4-(3-Aminoazetidin-1-yl)pyrimidin-2-yl]amino}-2,2-dimethylpropan-1-ol], the figure is 1460 nM.
With `CN[C@H]1CCN(c2ccnc(NCCCO)n2)C1` [Example 152, 3-({4-[(3S)-3-(Methylamino)pyrrolidin-1-yl]pyrimidin-2-yl}amino)propan-1-ol], the Ki turned out to be 2300 nM.
As for `CC(C)(CO)CNc1nccc(N2CC[C@@H](N)C2)n1` [Example 153, 3-({4-[(3R)-3-Aminopyrrolidin-1-yl]pyrimidin-2-yl}amino)-2,2-dimethylpropan-1-ol], the figure is 43.6 nM.
To `N[C@@H]1CCN(c2ccnc(NCCCO)n2)C1` [Example 154, 3-({4-[(3R)-3-Aminopyrrolidin-1-yl]pyrimidin-2-yl}amino)propan-1-ol] belongs 204 nM; to `NC1CN(c2ccnc(NCCCO)n2)C1` [Example 155, 3-{[4-(3-Aminoazetidin-1-yl)pyrimidin-2-yl]amino}propan-1-ol], 745 nM; to `Cc1ccc(CNc2nccc(N3CCNCC3)n2)cc1` [Example 156, N-(4-Methylbenzyl)-4-piperazin-1-ylpyrimidin-2-amine], 413 nM.
As for `c1ccc(CNc2nccc(N3CCNCC3)n2)nc1` [Example 157, 4-Piperazin-1-yl-N-(pyridin-2-ylmethyl)pyrimidin-2-amine], the figure is 2140 nM.
For the compound `CN[C@H]1CCN(c2ccnc(NCC(C)(C)CO)n2)C1` [Example 158, 2,2-Dimethyl-3-({4-[(3S)-3-(methylamino)pyrrolidin-1-yl]pyrimidin-2-yl}amino)propan-1-ol], the Ki was determined as 3490 nM.
As for `N[C@H]1CCN(c2ccnc(NC3CCCC3)n2)C1` [Example 160, 4-[(3S)-3-Aminopyrrolidin-1-yl]-N-cyclopentylpyrimidin-2-amine], the figure is 86.7 nM; as for `CN1CCN(c2ccnc(NCCCO)n2)CC1` [Example 161, 3-{[4-(4-Methylpiperazin-1-yl)pyrimidin-2-yl]amino}propan-1-ol], 1300 nM; as for `Cc1ccc(CNc2nccc(N3CCN(C)CC3)n2)cc1` [Example 163], 278 nM.
Consider `CSCCNc1nccc(N2CCN(C)CC2)n1` [Example 164, 4-(4-Methylpiperazin-1-yl)-N-[2-(methylsulfanyl)ethyl]pyrimidin-2-amine], for which the Ki worked out at 36.2 nM.
To `CN1CCN(c2ccnc(NCc3ccccc3)n2)CC1` [Example 165, N-Benzyl-4-(4-methylpiperazin-1-yl)pyrimidin-2-amine] belongs 732 nM; to `CC(C)(CO)CNc1nccc(N2CCNCC2)n1` [Example 166, 2,2-Dimethyl-3-[(4-piperazin-1-ylpyrimidin-2-yl)amino]propan-1-ol], above 10000 nM; to `CN[C@@H]1CCN(c2ccnc(NCCCO)n2)C1` [Example 167, 3-({4-[(3R)-3-(Methylamine)pyrrolidin-1-yl]pyrimidin-2-yl}amino)propan-1-ol], 34.9 nM.
To `C[C@@H]1[C@@H](Nc2nccc(N3CCN(C)CC3)n2)C[C@H]2C[C@@H]1C2(C)C` [Example 168, 4-(4-Methylpiperazin-1-yl)-N-[(1S,2S,3S,5R)-2,6,6-trimethylbicyclo[3.1.1]hept-3-yl]pyrimidin-2-amine] belongs 483 nM; to `CN[C@@H]1CCN(c2ccnc(NCC(C)(C)CO)n2)C1` [Example 169, 2,2-Dimethyl-3-({4-[(3R)-3-(methylamino)pyrrolidin-1-yl]pyrimidin-2-yl}amino)propan-1-ol], 9.67 nM; to `CN[C@@H]1CCN(c2ccnc(NCc3ccc(C)cc3)n2)C1` [Example 170, 4-[(3R)-3-(Methylamino)pyrrolidin-1-yl]-N-(4-methylbenzyl)pyrimidin-2-amine], 144 nM.
To `CNC1CN(c2ccnc(NCC(C)C)n2)C1` [Example 171, 4-[3-(Methylamino)azetidin-1-yl]-N-(2-methylpropyl)pyrimidin-2-amine] belongs 3.89 nM.
For `CNC1CN(c2ccnc(NC3CCCC3)n2)C1` [Example 172, N-Cyolopentyl-4-[3-(methylamino)azetidin-1-yl]pyrimidin-2-amine], the Ki amounted to 13.7 nM.
In the case of `CN1CCN(c2ccnc(NCCc3ccccc3)n2)CC1` [Example 173, 4-(4-Methylpiperazin-1-yl)-N-(2-phenylethyl)pyrimidin-2-amine], the Ki amounted to 745 nM.
For the compound `CN[C@@H]1CCN(c2ccnc(NCc3ccccc3)n2)C1` [Example 174, N-Benzyl-4-[(3R)-3-(methylamine)pyrrolidin-1-yl]pyrimidin-2-amine], the Ki worked out at 19.1 nM.
As for `C[C@@H](Nc1nccc(N2CC[C@@H](N)C2)n1)c1ccccc1` [Example 175, 4-[(3R)-3-Aminopyrrolidin-1-yl]-N-[(1R)-1-phenylethyl]pyrimidin-2-amine], the figure is 816 nM.
On to `CN[C@@H]1CCN(c2ccnc(NCc3ccc(OC)cc3)n2)C1` [Example 176, N-(4-Methoxybenzyl)-4-[(3R)-30(methylamino)pyrrolidin-1-yl]pyrimidin-2-amine], for which the Ki is 458 nM.
Take `CC(C)(O)CNc1nccc(N2CCNCC2)n1` [Example 177, 2-Methyl-1-[(4-piperazin-1-ylpyrimidin-2-yl)amino]propan-2-ol]: the Ki was 523 nM.
In the case of `CNC1CN(c2ccnc(NCc3ccc(F)cc3)n2)C1` [Example 178, N-(4-Fluorobenzyl)-4-[3-(methylamino)azetidin-1-yl]pyrimidin-2-amine], the Ki was found to be 243 nM.
As for `N[C@@H]1CCN(c2ccnc(NCc3ccccc3)n2)C1` [Example 179, 4-[(3R)-3-Aminopyrrolidin-1-yl]-N-benzylpyrimidin-2-amine], the figure is 788 nM; as for `CN[C@@H]1CCN(c2ccnc(N[C@H](C)c3ccccc3)n2)C1` [Example 180, 4-[(3R)-3-(Methylamino)pyrrolidin-1-yl]-N-[(1R)-1-phenylethyl]pyrimidin-2-amine], 116 nM.
To `N[C@@H]1CCN(c2ccnc(NC3CCCCC3)n2)C1` [Example 181, 4-[(3R)-3-Aminopyrrolidin-1-yl]-N-cyclohexylpyrimidin-2-amine] belongs 9.07 nM; to `CNC1CN(c2ccnc(NCCOC)n2)C1` [Example 182, N-(2-Methoxyethyl)-4-[3-(methylamino)azetidin-1-yl]pyrimidin-2-amine], 45.4 nM.
To `CN[C@@H]1CCN(c2ccnc(NCCc3ccccc3)n2)C1` [Example 183, 4-[(3R)-3-(Methylamino)pyrrolidin-1-yl]-N-(2-phenylethyl)pyrimidin-2-amine] belongs 15.6 nM.
